# Measurements: PubChem BioAssay AID1918995 (Molecular Pharmacology Branch, DTP, NCI, 2023)
# “And” between values parts separate entries of the source, which are not always exact repeats. Identical values can stand only once.
# System: 324938-238-R-J1-PDC complex spheroid growth, % test/control
# Assay: Anticancer human tumor 324938-238-R-J1-PDC patient-derived bladder carcinoma cell line growth inhibition [AhR]
# Conditions: for viability, T/C: stronger effect = lower value
# Procedure, shortened: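 Agents were dosed in half-log steps down from roughly clinical Cmax, or from 10 microM where Cmax was unknown, alone and with AhR antagonists. Read-out: percent test/control growth of tumor spheroids containing HUVEC and MSC stromal cells.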
# [1] = curve of first compound, second compound 0.1 µM
# [2] = curve of first compound, second compound 0.316 µM
# [3] = curve of first compound, second compound 1 µM
# [4] = curve of first compound, second compound 3.16 µM
# [5] = curve of first compound, second compound 10 µM
# 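Note: spheroids exposed to agents for seven days before viability read.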
structure (smiles),measurement,setting,value
O=C(C=Cn1cnc(-c2cc(C(F)(F)F)cc(C(F)(F)F)c2)n1)NNc1cnccn1 + CC(CO)NC(=O)c1cc(-c2ccc(Cl)cc2)nn(-c2cnn(C)c2)c1=O,IC50,[1],123 nM
same,IC50,[2],138 nM
same,IC50,[3],135 nM
same,IC50,[4],96.2 nM
same,IC50,[5],125 nM
same,"viability, T/C","second compound 0.1 µM, first compound 0.00949 µM",83.2%
same,"viability, T/C","second compound 0.1 µM, first compound 0.03 µM",77.4%
same,"viability, T/C","second compound 0.1 µM, first compound 0.0949 µM",51.8%
same,"viability, T/C","second compound 0.1 µM, first compound 0.3 µM",34.9%
same,"viability, T/C","second compound 0.1 µM, first compound 0.949 µM",17.8%
same,"viability, T/C","second compound 0.1 µM, first compound 3 µM",11.8%
same,"viability, T/C","second compound 0.316 µM, first compound 0.00949 µM",75.7%
same,"viability, T/C","second compound 0.316 µM, first compound 0.03 µM",87.5%
same,"viability, T/C","second compound 0.316 µM, first compound 0.0949 µM",53.8%
same,"viability, T/C","second compound 0.316 µM, first compound 0.3 µM",33.5%
same,"viability, T/C","second compound 0.316 µM, first compound 0.949 µM",19.8%
same,"viability, T/C","second compound 0.316 µM, first compound 3 µM",12.6%
same,"viability, T/C","second compound 1 µM, first compound 0.00949 µM",82.3%
same,"viability, T/C","second compound 1 µM, first compound 0.03 µM",76.4%
same,"viability, T/C","second compound 1 µM, first compound 0.0949 µM",58%
same,"viability, T/C","second compound 1 µM, first compound 0.3 µM",31.1%
same,"viability, T/C","second compound 1 µM, first compound 0.949 µM",23.1%
same,"viability, T/C","second compound 1 µM, first compound 3 µM",14.2%
same,"viability, T/C","second compound 3.16 µM, first compound 0.00949 µM",69.1%
same,"viability, T/C","second compound 3.16 µM, first compound 0.03 µM",65%
same,"viability, T/C","second compound 3.16 µM, first compound 0.0949 µM",50.7%
same,"viability, T/C","second compound 3.16 µM, first compound 0.3 µM",27.2%
same,"viability, T/C","second compound 3.16 µM, first compound 0.949 µM",19%
same,"viability, T/C","second compound 3.16 µM, first compound 3 µM",12.8%
same,"viability, T/C","second compound 10 µM, first compound 0.00949 µM",62%
same,"viability, T/C","second compound 10 µM, first compound 0.03 µM",61.8%
same,"viability, T/C","second compound 10 µM, first compound 0.0949 µM",57.7%
same,"viability, T/C","second compound 10 µM, first compound 0.3 µM",31.3%
same,"viability, T/C","second compound 10 µM, first compound 0.949 µM",24.8%
same,"viability, T/C","second compound 10 µM, first compound 3 µM",11.4%
Nc1ncn(C2CC(O)C(CO)O2)c(=O)n1 (centres undefined),"viability, T/C",compound 0.00316 µM,69.8% and 99.6% and 102%
same,"viability, T/C",compound 0.01 µM,96.2% and 113% and 94.2%
same,"viability, T/C",compound 0.0316 µM,82.3% and 98.6% and 85.2%
same,"viability, T/C",compound 0.1 µM,83.7% and 98.3% and 96.2%
same,"viability, T/C",compound 0.316 µM,128% and 80.2% and 81.7%
same,"viability, T/C",compound 1 µM,92.8% and 72% and 68.3%
same,IC50,curve of compound,> 1000 nM
COc1cc(C2c3cc4c(cc3C(OC3OC5COC(C)OC5C(O)C3O)C3COC(=O)C23)OCO4)cc(OC)c1O (centres undefined) + Cc1cncc(-c2nc(NCCc3c[nH]c4ccccc34)c3ncn(C(C)C)c3n2)c1,IC50,[1],> 10000 nM
same,IC50,[2],> 10000 nM
same,IC50,[3],> 10000 nM
same,IC50,[4],> 10000 nM
same,IC50,[5],< 31.6 nM
same,"viability, T/C","second compound 0.1 µM, first compound 0.0316 µM",104%
same,"viability, T/C","second compound 0.1 µM, first compound 0.1 µM",113%
same,"viability, T/C","second compound 0.1 µM, first compound 0.316 µM",96.8%
same,"viability, T/C","second compound 0.1 µM, first compound 1 µM",126%
same,"viability, T/C","second compound 0.1 µM, first compound 3.16 µM",106%
same,"viability, T/C","second compound 0.1 µM, first compound 10 µM",123%
same,"viability, T/C","second compound 0.316 µM, first compound 0.0316 µM",109%
same,"viability, T/C","second compound 0.316 µM, first compound 0.1 µM",128%
same,"viability, T/C","second compound 0.316 µM, first compound 0.316 µM",109%
same,"viability, T/C","second compound 0.316 µM, first compound 1 µM",87.2%
same,"viability, T/C","second compound 0.316 µM, first compound 3.16 µM",95.1%
same,"viability, T/C","second compound 0.316 µM, first compound 10 µM",87.8%
same,"viability, T/C","second compound 1 µM, first compound 0.0316 µM",126%
same,"viability, T/C","second compound 1 µM, first compound 0.1 µM",102%
same,"viability, T/C","second compound 1 µM, first compound 0.316 µM",84.9%
same,"viability, T/C","second compound 1 µM, first compound 1 µM",107%
same,"viability, T/C","second compound 1 µM, first compound 3.16 µM",103%
same,"viability, T/C","second compound 1 µM, first compound 10 µM",106%
same,"viability, T/C","second compound 3.16 µM, first compound 0.0316 µM",86%
same,"viability, T/C","second compound 3.16 µM, first compound 0.1 µM",95.2%
same,"viability, T/C","second compound 3.16 µM, first compound 0.316 µM",94.2%
same,"viability, T/C","second compound 3.16 µM, first compound 1 µM",81.8%
same,"viability, T/C","second compound 3.16 µM, first compound 3.16 µM",106%
same,"viability, T/C","second compound 3.16 µM, first compound 10 µM",81.6%
same,"viability, T/C","second compound 10 µM, first compound 0.0316 µM",3.73%
same,"viability, T/C","second compound 10 µM, first compound 0.1 µM",10.1%
same,"viability, T/C","second compound 10 µM, first compound 0.316 µM",6.66%
same,"viability, T/C","second compound 10 µM, first compound 1 µM",4%
same,"viability, T/C","second compound 10 µM, first compound 3.16 µM",6.93%
same,"viability, T/C","second compound 10 µM, first compound 10 µM",15%
CCN(c1cc(-c2ccc(CN3CCOCC3)cc2)cc(C(=O)NCc2c(C)cc(C)[nH]c2=O)c1C)C1CCOCC1,"viability, T/C",compound 0.00949 µM,93.5% and 100% and 111%
same,"viability, T/C",compound 0.03 µM,109% and 106% and 117%
same,"viability, T/C",compound 0.0949 µM,106% (2×) and 107%
same,"viability, T/C",compound 0.3 µM,83% and 100% and 116%
same,"viability, T/C",compound 0.949 µM,85% and 104% and 113%
same,"viability, T/C",compound 3 µM,124% and 97.5% and 105%
same,IC50,curve of compound,> 3000 nM
